Measured values taken from US8871753B2, “Macrocyclic compounds and their use as kinase inhibitors” (Incyte Corporation, priority 2008, dated 2014).
Counter-ions that a name gives are not always drawn. Like-named read-outs stand apart in the source and are kept apart here.

Legend:
Format in all cases: biochemical
[1] = molecular target: T1, human JAK3 (a.a. 781-1124) (Homo sapiens, UniProt P52333); experiment: In vitro JAK kinase assay (HTRF, phosphorylation of a biotinylated peptide), JAK3
T1 construct: JAK3 (a.a. 781-1124); His tag (N); made in house; host or cells: insect cells (baculovirus)
T1 sequence (P52333 781-1124): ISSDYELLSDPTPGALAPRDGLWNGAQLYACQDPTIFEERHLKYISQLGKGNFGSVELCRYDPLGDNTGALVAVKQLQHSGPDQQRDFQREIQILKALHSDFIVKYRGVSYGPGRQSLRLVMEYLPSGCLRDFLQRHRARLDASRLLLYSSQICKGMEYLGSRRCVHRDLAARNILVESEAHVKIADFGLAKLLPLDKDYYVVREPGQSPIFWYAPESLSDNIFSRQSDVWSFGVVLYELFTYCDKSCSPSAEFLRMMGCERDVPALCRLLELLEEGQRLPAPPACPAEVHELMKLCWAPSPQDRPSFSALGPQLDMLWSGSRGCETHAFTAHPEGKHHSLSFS
How it was run: (§1)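 Kinase reactions ran at room temperature for 1 h with ATP matched per isoform (JAK1 90 μM, JAK2 30 μM, JAK3 3 μM). After an EDTA stop, the phosphorylated biotin-peptide was read by HTRF using Eu-Py20 and SA-APC after 40 min binding.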

[2] = molecular target: T2, human JAK1 (a.a. 837-1142) (Homo sapiens, UniProt P23458); experiment: In vitro JAK kinase assay (HTRF, phosphorylation of a biotinylated peptide), JAK1; conditions: read-out: JAK1 IC50
T2 construct: human JAK1 (a.a. 837-1142); His tag (N); made in house; host or cells: insect cells (baculovirus)
T2 sequence (P23458 849-1154): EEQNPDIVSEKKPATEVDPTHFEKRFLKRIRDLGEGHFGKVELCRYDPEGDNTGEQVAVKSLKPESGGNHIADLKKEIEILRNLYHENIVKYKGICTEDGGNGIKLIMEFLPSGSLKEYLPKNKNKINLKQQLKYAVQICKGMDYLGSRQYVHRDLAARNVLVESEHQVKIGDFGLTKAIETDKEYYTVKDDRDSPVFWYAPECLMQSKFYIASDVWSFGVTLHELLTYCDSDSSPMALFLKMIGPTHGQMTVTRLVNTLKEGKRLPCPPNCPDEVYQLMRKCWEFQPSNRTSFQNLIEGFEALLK
How it was run: as §1

[3] = molecular target: T3, human JAK2 (a.a. 828-1132) (Homo sapiens, UniProt O60674); experiment: In vitro JAK kinase assay (HTRF, phosphorylation of a biotinylated peptide), JAK2
T3 construct: JAK2 (a.a. 828-1132); His tag (N); made in house; host or cells: insect cells (baculovirus)
T3 sequence (O60674 828-1132): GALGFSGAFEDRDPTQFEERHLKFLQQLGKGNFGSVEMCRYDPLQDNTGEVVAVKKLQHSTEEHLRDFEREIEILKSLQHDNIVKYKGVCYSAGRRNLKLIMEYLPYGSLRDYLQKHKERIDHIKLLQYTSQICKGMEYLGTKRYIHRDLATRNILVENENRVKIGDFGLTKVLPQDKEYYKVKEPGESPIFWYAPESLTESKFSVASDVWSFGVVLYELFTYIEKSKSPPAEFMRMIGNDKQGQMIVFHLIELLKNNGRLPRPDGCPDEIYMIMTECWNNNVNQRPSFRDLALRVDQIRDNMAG
How it was run: as §1

[4] = molecular target: T4, Recombinant Human Anaplastic Lymphoma Kinase (Homo sapiens, UniProt Q9UM73); experiment: ALK HTRF kinase assay; conditions: for IC50: Table B1, cells without percent sign
T4 construct: purchased Invitrogen, Carlsbad, Calif
T4 sequence (Q9UM73 19-1620): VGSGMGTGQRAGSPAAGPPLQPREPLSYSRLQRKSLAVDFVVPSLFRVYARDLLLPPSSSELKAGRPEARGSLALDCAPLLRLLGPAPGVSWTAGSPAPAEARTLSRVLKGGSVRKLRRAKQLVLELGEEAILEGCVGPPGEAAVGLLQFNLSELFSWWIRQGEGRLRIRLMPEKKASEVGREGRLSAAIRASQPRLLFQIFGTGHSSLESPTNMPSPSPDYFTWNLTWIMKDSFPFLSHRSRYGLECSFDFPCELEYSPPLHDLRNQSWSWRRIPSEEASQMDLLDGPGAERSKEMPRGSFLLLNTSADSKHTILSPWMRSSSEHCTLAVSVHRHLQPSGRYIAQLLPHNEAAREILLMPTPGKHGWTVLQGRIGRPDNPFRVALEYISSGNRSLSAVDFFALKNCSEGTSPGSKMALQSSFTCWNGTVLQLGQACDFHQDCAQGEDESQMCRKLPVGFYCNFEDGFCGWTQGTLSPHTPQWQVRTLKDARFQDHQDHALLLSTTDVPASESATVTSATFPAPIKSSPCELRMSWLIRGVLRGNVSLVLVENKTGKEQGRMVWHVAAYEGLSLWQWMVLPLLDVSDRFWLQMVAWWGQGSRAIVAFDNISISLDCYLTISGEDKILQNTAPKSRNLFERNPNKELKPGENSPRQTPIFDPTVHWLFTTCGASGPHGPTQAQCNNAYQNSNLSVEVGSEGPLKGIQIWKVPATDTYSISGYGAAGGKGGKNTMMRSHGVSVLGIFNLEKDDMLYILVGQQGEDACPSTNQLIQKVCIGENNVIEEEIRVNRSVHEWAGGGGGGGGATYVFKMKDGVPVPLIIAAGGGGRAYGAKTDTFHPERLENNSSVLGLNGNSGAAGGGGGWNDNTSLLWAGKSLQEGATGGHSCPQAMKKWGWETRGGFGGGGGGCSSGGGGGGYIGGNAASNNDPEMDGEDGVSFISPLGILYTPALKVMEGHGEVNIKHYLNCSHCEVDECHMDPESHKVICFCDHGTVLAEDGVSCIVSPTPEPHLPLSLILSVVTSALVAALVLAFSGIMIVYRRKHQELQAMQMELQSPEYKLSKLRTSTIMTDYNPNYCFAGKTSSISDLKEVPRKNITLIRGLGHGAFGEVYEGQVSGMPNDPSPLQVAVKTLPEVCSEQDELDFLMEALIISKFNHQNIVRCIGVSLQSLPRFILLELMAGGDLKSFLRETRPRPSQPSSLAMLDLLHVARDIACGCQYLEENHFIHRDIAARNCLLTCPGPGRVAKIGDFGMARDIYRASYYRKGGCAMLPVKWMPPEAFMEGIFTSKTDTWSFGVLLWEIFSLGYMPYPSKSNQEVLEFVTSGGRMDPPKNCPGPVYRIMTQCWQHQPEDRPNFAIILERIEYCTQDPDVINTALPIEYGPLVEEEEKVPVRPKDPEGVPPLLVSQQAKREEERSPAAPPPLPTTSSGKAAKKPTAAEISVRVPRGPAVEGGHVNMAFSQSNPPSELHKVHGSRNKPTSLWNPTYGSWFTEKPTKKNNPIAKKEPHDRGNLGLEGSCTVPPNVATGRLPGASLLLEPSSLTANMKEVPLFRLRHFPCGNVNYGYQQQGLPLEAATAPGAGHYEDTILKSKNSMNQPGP
How it was run: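 Compounds were incubated with recombinant human ALK and a biotin-tagged peptide substrate. Product was captured with streptavidin-APC and probed with a europium anti-phosphotyrosine antibody, and plates were read for time-resolved fluorescence. Dose-response data were fitted to derive IC50.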

TYK2 = TYK2 (Homo sapiens, UniProt P29597); experiment: TYK2 kinase inhibition (Table A1)
Chain of TYK2 (P29597 whole entry): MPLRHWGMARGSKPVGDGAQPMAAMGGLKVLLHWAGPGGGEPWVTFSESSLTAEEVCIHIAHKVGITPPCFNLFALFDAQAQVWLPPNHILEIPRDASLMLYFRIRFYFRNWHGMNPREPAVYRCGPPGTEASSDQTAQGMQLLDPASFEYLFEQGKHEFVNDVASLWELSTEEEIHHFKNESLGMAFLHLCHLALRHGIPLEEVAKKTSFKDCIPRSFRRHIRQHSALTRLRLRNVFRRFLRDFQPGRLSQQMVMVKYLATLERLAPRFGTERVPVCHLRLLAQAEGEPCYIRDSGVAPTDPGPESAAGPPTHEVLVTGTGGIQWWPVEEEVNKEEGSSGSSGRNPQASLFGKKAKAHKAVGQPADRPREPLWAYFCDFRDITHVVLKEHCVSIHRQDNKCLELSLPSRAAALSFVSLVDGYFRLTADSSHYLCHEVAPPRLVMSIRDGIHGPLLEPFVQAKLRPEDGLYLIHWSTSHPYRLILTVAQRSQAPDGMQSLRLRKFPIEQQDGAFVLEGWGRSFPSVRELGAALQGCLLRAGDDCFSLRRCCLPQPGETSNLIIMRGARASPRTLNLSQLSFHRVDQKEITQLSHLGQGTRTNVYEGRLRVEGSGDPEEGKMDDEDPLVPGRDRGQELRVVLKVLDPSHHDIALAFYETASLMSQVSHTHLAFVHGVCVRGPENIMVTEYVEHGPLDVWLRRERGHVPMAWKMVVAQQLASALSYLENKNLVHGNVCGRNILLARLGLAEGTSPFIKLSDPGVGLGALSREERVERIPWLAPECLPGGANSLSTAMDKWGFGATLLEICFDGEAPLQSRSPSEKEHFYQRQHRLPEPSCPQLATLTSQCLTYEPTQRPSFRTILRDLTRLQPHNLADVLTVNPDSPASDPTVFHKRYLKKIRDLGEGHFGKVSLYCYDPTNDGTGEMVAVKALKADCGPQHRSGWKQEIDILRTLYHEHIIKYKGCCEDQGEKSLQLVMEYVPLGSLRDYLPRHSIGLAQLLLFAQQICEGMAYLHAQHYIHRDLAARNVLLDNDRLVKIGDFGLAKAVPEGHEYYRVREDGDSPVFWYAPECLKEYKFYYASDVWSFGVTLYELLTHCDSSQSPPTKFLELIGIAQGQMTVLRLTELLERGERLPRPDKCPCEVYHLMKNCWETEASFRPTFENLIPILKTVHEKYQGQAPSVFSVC

[5] = percentage inhibition of the example compound at a concentration of 500 nM or 1 mM (not specified which)
[6] = compound at a concentration of 500 nM or 1 mM (not specified), cells shown as percentage
[7] = method AA1 (3 μM ATP) or AA2 (1000 μM ATP), not stated per value
[8] = method AA1 (90 μM ATP) or AA2 (1000 μM ATP), not stated per value
[9] = method AA1 (30 μM ATP) or AA2 (1000 μM ATP), not stated per value
[10] = compound at 500 nM or 1 mM, 90 μM ATP

Row | IC50 ([1]; Table B1) | IC50 ([2]; Table B1) | IC50 ([3]; Table B1) | ALK % of inhibition at a concentration of 500 nM or 1 mM [4, 5] | IC50 (TYK2; Table B1) | ALK % of inhibition at a concentration of 500 nM or 1 mM [4, 6] | IC50 [4] | IC50 [1, 7] | IC50 [2, 8] | IC50 [3, 9] | ALK % of inhibition at a concentration of 500 nM or 1 mM [4, 10] | IC50 (TYK2) | SMILES
1 | > 400 nM | 13 nM | 91 nM | 38% | > 400 nM | – | – | – | – | – | – | – | CC(=O)N1CCC(CN(C)Cc2ccc3cc2CCc2cncc(c2)Nc2ncc(Cl)c(n2)N3)CC1 [Example B346, 1-(1-Acetylpiperidin-4-yl)-N-{[6-chloro-2,4,8,18,22-pentaazatetracyclo[14.3.1.1(3,7).1(9,13)]docosa-1(20),3(22),4,6,9(21),10,12,16,18-nonaen-12-yl]methyl}-N-methylmethanamine tris(trifluoroacetate)]
2 | 312 nM | 400 nM | 238 nM | – | 500 nM | 14% | – | – | – | – | – | – | N#Cc1ccc(NC(=O)Nc2cc3cc(c2)Nc2nc(ncc2Cl)Nc2cccc(c2)CC3)cc1 [Example B212, N-[6-Chloro-2,4,8,22-tetraazatetracyclo[14.3.1.1(3,7).1(9,13)]docosa-1(20),3(22),4,6,9(21),10,12,16,18-nonaen-11-yl]-N′-(4-cyanophenyl)urea trifluoroacetate]
3 | 20 nM | 1.3 nM | 2.1 nM | – | 7.7 nM | 22% | – | – | – | – | – | – | Cc1occc1NC(=O)Nc1ccc2cc1CCc1cccc(c1)Nc1ncc(Cl)c(n1)N2 [Example B118, N-[6-Chloro-2,4,8,22-tetraazatetracyclo[14.3.1.1(3,7).1(9,13)]docosa-1(20), 3(22),4,6,9(21),10,12,16,18-nonaen-12-yl]-N′-(2-methyl-3-furyl)urea trifluoroacetate]
4 | 42 nM | 5.3 nM | 4.5 nM | – | 16 nM | – | > 1000 nM | – | – | – | – | – | CC(C)(C)NC(=O)Nc1ccc2cc1CCc1cccc(c1)Nc1ncc(Cl)c(n1)N2 [Example B87, N-(tert-Butyl)-N′-[6-chloro-2,4,8,22-tetraazatetracyclo[14.3.1.1(3,7).1(9,13)]docosa-1(20),3(22),4,6,9(21),10,12,16,18-nonaen-12-yl]urea trifluoroacetate]
5 | 144 nM | 97 nM | 92 nM | – | 275 nM | – | 2370 nM | – | – | – | – | – | O=C(NCc1ccncc1)c1cc2cc(c1)Nc1nc(ncc1Cl)Nc1cccc(c1)CC2 [Example B11, 6-Chloro-N-(pyridin-4-ylmethyl)-2,4,8,22-tetraazatetracyclo[14.3.1.1(3,7).1(9,13)]docosa-1(20),3(22),4,6,9(21),10,12,16,18-nonaene-11-carboxamide bis(trifluoroacetate)]
6 | – | – | – | – | – | – | – | 144 nM | 74 nM | 42 nM | 0% | 116 nM | Clc1cnc2nc1Nc1ccc(OC3CCCC3)c(c1)CCc1cccc(c1)N2 [Example A14, 6-Chloro-12-(cyclopentyloxy)-2,4,8,22-tetraazatetracyclo[14.3.1.1(3,7).1(9,13)]docosa-1(20),3(22),4,6,9(21),10,12,16,18-nonaene trifluoroacetate]
7 | > 400 nM | 47 nM | > 400 nM | 50% | 235 nM | – | – | – | – | – | – | – | O=C(Nc1ccc2cc1CCc1cncc(c1)Nc1ncc(Cl)c(n1)N2)N1CCN2CCCC2C1 (stereo not shown) [Example B315, N-[6-Chloro-2,4,8,18,22-pentaazatetracyclo[14.3.1.1(3,7).1(9,13)]docosa-1(20),3(22),4,6,9(21),10,12,16,18-nonaen-12-yl]hexahydropyrrolo[1,2-a]pyrazine-2(1H)-carboxamide tris(trifluoroacetate)]
8 | – | – | – | – | – | – | – | 71 nM | 26 nM | 52 nM | 21% | 169 nM | O=C(Nc1ccc2cc1CCc1cccc(c1)Nc1ncc(Cl)c(n1)N2)C1CCCNC1 (stereo not shown) [Example A44, N-[6-Chloro-2,4,8,22-tetraazatetracyclo[14.3.1.1(3,7).1(9,13)]docosa-1(20), 3(22),4,6,9(21),10,12,16,18-nonaen-12-yl]piperidine-3-carboxamide bis(trifluoroacetate)]
9 | > 1000 nM | 263 nM | 130 nM | – | 683 nM | – | > 1000 nM | – | – | – | – | – | O=C(Nc1ccc(N2CCOCC2)cc1)c1cc2cc(c1)Nc1nc(ncc1Cl)Nc1cccc(c1)CC2 [Example B9, 6-Chloro-N-(4-morpholin-4-ylphenyl)-2,4,8,22-tetraazatetracyclo[14.3.1.1(3,7).1(9,13)]docosa-1(20),3(22),4,6,9(21),10,12,16,18-nonaene-11-carboxamide trifluoroacetate]
10 | 17 nM | 1.1 nM | 2.8 nM | – | 4.5 nM | 21% | – | – | – | – | – | – | O=C(NCc1ccco1)Nc1ccc2cc1CCc1cccc(c1)Nc1ncc(Cl)c(n1)N2 [Example B117, N-[6-Chloro-2,4,8,22-tetraazatetracyclo[14.3.1.1(3,7).1(9,13)]docosa-1(20), 3(22),4,6,9(21),10,12,16,18-nonaen-12-yl]-N′-(2-furylmethyl)urea trifluoroacetate]
11 | 26 nM | 3 nM | 3.4 nM | 23% | 8.2 nM | – | – | – | – | – | – | – | Cn1ccc(S(=O)(=O)NCCNC(=O)Nc2ccc3cc2CCc2cccc(c2)Nc2ncc(Cl)c(n2)N3)n1 [Example B332, N-{2-[({[6-chloro-2,4,8,22-tetraazatetracyclo[14.3.1.1(3,7).1(9,13)]docosa-1(20),3(22),4,6,9(21),10,12,16,18-nonaen-12-yl]amino}carbonyl)amino]ethyl}-1-methyl-1H-pyrazole-3-sulfonamide trifluoroacetate]
12 | – | – | – | – | – | – | – | > 400 nM | 7.2 nM | 180 nM | 36% | > 400 nM | Cc1ccccc1S(=O)(=O)N1CCC(CC(=O)Nc2ccc3cc2CCc2cncc(c2)Nc2ncc(Cl)c(n2)N3)CC1 [Example A225, N-[6-Chloro-2,4,8,18,22-pentaazatetracyclo[14.3.1.1(3,7).1(9,13)]docosa-1(20),3(22),4,6,9(21),10,12,16,18-nonaen-12-yl]-2-{1-[(2-methylphenyl)sulfonyl]piperidin-4-yl}acetamide bis(trifluoroacetate)]
13 | – | – | – | – | – | – | – | 23 nM | 4.5 nM | 3.3 nM | 59% | 11 nM | O=C(COc1ccc2cc1CCc1cccc(c1)Nc1ncc(Cl)c(n1)N2)Nc1ccccc1 [Example A18, 2-{[6-Chloro-2,4,8,22-tetraazatetracyclo[14.3.1.1(3,7).1(9,13)]docosa-1(20),3(22),4,6,9(21),10,12,16,18-nonaen-12-yl]oxy}-N-phenylacetamide trifluoroacetate]
14 | > 10000 nM | 276 nM | 446 nM | – | 1790 nM | 4.6% | – | – | – | – | – | – | Cc1cc(C(=O)Nc2ccc3cc2CCc2cccc(c2)Nc2ncc(Cl)c(n2)N3)nc(Cl)n1 [Example B280, 2-Chloro-N-[6-chloro-2,4,8,22-tetraazatetracyclo[14.3.1.1(3,7).1(9,13)]docosa-1(20),3(22),4,6,9(21),10,12,16,18-nonaen-12-yl]-6-methylpyrimidine-4-carboxamide bis(trifluoroacetate)]
